Test results reported in patent US10124004B2, “Pyrido[3,4-d]pyrimidine derivative and pharmaceutically acceptable salt thereof” (Teijin Pharma Limited, priority 2015, dated 2018).
Like-named read-outs stand apart in the source and are kept apart here.

Assays:
CDK2/cyclin A2 = target: T1, CDK2/cyclin A2 (Homo sapiens, UniProt P24941); test: Human CDK2/cyclin A2 inhibitory activity (QS S Assist CDK2/Cyclin A2_FP Kit, IMAP fluorescence polarization); format: biochemical
T1 construct: purchased Carna Biosciences, Inc. QS S Assist CDK2/Cyclin A2_FP Kit
Summary of the method: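 Kinase activity read as fluorescence polarization (485/535 nm) after phosphorylated fluorescent substrate binds IMAP reagent (30 min, RT, dark). Enzyme (2.5 ng/well) reacted 60 min at RT with ATP/substrate/metal in HEPES pH 7.4 buffer with Tween 20 and DTT; no-enzyme wells define 0% activity; IC50 by curve fit.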

CDK4/cyclin D3 = target: T2, CDK4/cyclin D3 (Homo sapiens, UniProt P11802); test: Human CDK4/cyclin D3 inhibitory activity (QS S Assist CDK4/Cyclin D3_FP Kit, IMAP fluorescence polarization); format: biochemical
T2 construct: purchased Carna Biosciences, Inc. QS S Assist CDK4/Cyclin D3_FP Kit
Summary of the method: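 Percent inhibition, relative to DMSO with and without enzyme, was curve-fitted to give IC50 from polarization (ex 485, em 535 nm). The 45-min room-temperature reaction used 12.5-25 ng/well enzyme, kit ATP/substrate/metal mix, and HEPES pH 7.4 buffer with Tween20 and DTT, followed by 30-min IMAP binding in the dark.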

[1] = 50% inhibitory concentration against CDK2/cyclin A2, given as class symbol
[2] = 50% inhibitory concentration against CDK4/cyclin D3, given as class symbol
[3] = Human CDK2/cyclin A2 inhibitory activity, read-out: CDK2 Activity symbol
[4] = Human CDK4/cyclin D3 inhibitory activity, read-out: CDK4 Activity symbol

T2 sequence (P11802 whole entry): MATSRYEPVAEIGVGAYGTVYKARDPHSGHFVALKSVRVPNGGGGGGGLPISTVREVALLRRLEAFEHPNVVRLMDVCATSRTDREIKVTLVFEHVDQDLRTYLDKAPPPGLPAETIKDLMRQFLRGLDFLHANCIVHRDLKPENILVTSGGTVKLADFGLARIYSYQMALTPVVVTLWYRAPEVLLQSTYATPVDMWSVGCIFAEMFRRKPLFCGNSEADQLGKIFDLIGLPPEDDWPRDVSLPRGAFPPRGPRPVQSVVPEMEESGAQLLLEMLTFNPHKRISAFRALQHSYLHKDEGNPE
T2 sequence (P30281 whole entry partner): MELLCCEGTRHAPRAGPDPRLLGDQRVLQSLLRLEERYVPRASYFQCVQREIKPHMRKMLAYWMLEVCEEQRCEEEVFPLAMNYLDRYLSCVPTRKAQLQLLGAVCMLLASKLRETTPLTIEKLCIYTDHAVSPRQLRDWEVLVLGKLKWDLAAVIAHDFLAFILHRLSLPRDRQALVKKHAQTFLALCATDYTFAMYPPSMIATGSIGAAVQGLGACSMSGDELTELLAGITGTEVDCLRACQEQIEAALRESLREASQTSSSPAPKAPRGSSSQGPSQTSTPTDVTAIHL

Row | SMILES | IC50 (CDK2/cyclin A2; [1]) [nM] | IC50 (CDK4/cyclin D3; [2]) [nM] | IC50 (CDK2/cyclin A2; [3]) [nM] | IC50 (CDK4/cyclin D3; [4]) [nM]
1 | CO[C@H](C)c1cc2cnc(Nc3ccc(-c4cccnc4)cn3)nc2c(NC(C)C)n1 [Compound 331] |  |  | ≥ 100 | ≥ 100
2 | CO[C@H](C)c1cc2cnc(Nc3ccc(C4CCNCC4)nn3)nc2c(NC(C)C)n1 [Compound 311] |  |  | ≥ 100 | < 10
3 | CC(=O)NCc1ccc(Nc2ncc3cc(C(F)F)nc(NC(C)C)c3n2)nc1 [Compound 124] |  |  | ≥ 100 | 10 to 100
4 | C[C@@H](O)c1cc2cnc(Nc3ccc(CN4CCN(CCO)CC4)cn3)nc2c(NCCC(F)F)n1 [Compound 1213] | ≥ 100 | < 10 |  | 
5 | CCNc1nc([C@@H](C)O)cc2cnc(Nc3ccc(CN4CCN(C[C@@H](C)O)CC4)cn3)nc12 [Compound 977] | ≥ 100 | < 10 |  | 
6 | CC(C)Nc1nc([C@@H](C)O)cc2cnc(Nc3ccc(C(=O)NCCN(C)C)cn3)nc12 [Compound 1164] | ≥ 100 | < 10 |  | 
7 | CC(C)Nc1nc([C@@H](C)O)cc2cnc(Nc3ccc(N4CCN(CC(C)(C)O)CCC4=O)cn3)nc12 [Compound 643] | ≥ 100 | < 10 |  | 
8 | C[C@@H](O)c1cc2cnc(Nc3ccc(N4CCNCC4=O)cn3)nc2c(NCC(F)(F)F)n1 [Compound 1174] | ≥ 100 | < 10 |  | 
9 | CNC1CCN(c2ccc(Nc3ncc4cc(C(C)O)nc(NC(C)C)c4n3)nn2)CC1F (centres unmarked) [Compound 610] |  |  | ≥ 100 | < 10
10 | CC(C)Nc1nc([C@@H](C)O)cc2cnc(Nc3ccc(C4COCCN4)cn3)nc12 (some centres unmarked) [Compound 798] | ≥ 100 | < 10 |  | 
11 | CCCNc1nc([C@@H](C)O)cc2cnc(Nc3ccc(CN4CC5CCC(C4)N5C)cn3)nc12 [Compound 1223] | ≥ 100 | < 10 |  | 
12 | Cc1nc(Nc2ncc3cc(C4CCOC4)nc(NC(C)C)c3n2)ccc1N1CCNCC1=O (single isomer, unassigned) [Compound 876] | ≥ 100 | < 10 |  | 
13 | CC(C)Nc1nc([C@@H](C)O)cc2cnc(Nc3ccc(C(=O)N4CC[C@H](N(C)C)C4)cn3)nc12 [Compound 1162] | 10 to 100 | < 10 |  | 
14 | CC(C)Nc1nc([C@@H](C)O)cc2cnc(Nc3ccc(CN4CCNCC4=O)cn3)nc12 [Compound 262] |  |  | ≥ 100 | 10 to 100
15 | C[C@@H](O)c1cc2cnc(Nc3ccc(CN4CCNCC4)cn3)nc2c(N[C@H]2CC[C@H](O)CC2)n1 [Compound 344] |  |  | ≥ 100 | < 10
16 | CC(C)Nc1nc(C(F)F)cc2cnc(Nc3ccc(CN4CCCNC4=O)cn3)nc12 [Compound 219] |  |  | 10 to 100 | < 10
17 | CC(=O)NCCCc1ccc(Nc2ncc3cc(C(F)F)nc(NC(C)C)c3n2)nc1 [Compound 152] |  |  | 10 to 100 | < 10
18 | CO[C@H](C)c1cc2cnc(Nc3ccc(N4CCN(CC(N)=O)CC4)nn3)nc2c(NC(C)C)n1 [Compound 908] | ≥ 100 | < 10 |  | 
19 | C[C@@H](O)c1cc2cnc(Nc3ccc(OC[C@@H]4CCCN4)cn3)nc2c(N[C@H]2CCCOC2)n1 [Compound 782] | ≥ 100 | < 10 |  | 
20 | CO[C@H](C)c1cc2cnc(Nc3ccc(C4CCN(C(C)=O)CC4)cn3)nc2c(NC(C)C)n1 [Compound 224] |  |  | ≥ 100 | < 10
21 | CNCCOc1ccc(Nc2ncc3cc([C@@H](C)OC)nc(NC(C)C)c3n2)nc1 [Compound 288] |  |  | ≥ 100 | < 10
22 | CCCNc1nc(C2CCCO2)cc2cnc(Nc3ccc(N4CCNCC4)cn3)nc12 (single isomer, unassigned) [Compound 1026] | ≥ 100 | 10 to 100 |  | 
23 | CO[C@H](C)c1cc2cnc(Nc3ccc(N4CCNCC4)nn3)nc2c(NCC(C)C)n1 [Compound 862] | ≥ 100 | < 10 |  | 
24 | CC(C)Nc1nc([C@@H](C)O)cc2cnc(Nc3ccc(N4CCN(C(C)C(=O)O)CC4=O)cn3)nc12 (some centres unmarked) [Compound 895] | ≥ 100 | < 10 |  | 
25 | CC(C)Nc1nc([C@@H](C)O)cc2cnc(Nc3ccc(CN4CCN(C)CC4)cn3)nc12 [Compound 548] |  |  | ≥ 100 | < 10

Other lines, results leading:

Row | IC50 (CDK2/cyclin A2; [1]) [nM] | IC50 (CDK4/cyclin D3; [2]) [nM] | IC50 (CDK2/cyclin A2; [3]) [nM] | IC50 (CDK4/cyclin D3; [4]) [nM] | SMILES
26 | ≥ 100 | < 10 |  |  | CO[C@H](C)c1cc2cnc(Nc3ccc(CN4CCN(CCO)CC4)cn3)nc2c(N[C@H]2CCCOC2)n1 [Compound 860]
27 |  |  | ≥ 100 | < 10 | COC1CCN(Cc2ccc(Nc3ncc4cc([C@@H](C)OC)nc(NC(C)C)c4n3)nc2)CC1 [Compound 274]
28 |  |  | ≥ 100 | < 10 | CO[C@H](C)c1cc2cnc(Nc3ccc(N4CCOCC4)cn3)nc2c(NC(C)C)n1 [Compound 214]
29 | ≥ 100 | < 10 |  |  | CC(C)Nc1nc([C@@H](C)O)cc2cnc(Nc3ccc(CN4CCN(C[C@@H](C)O)CC4)cn3)nc12 [Compound 675]
30 |  |  | < 10 | < 10 | CC(C)Nc1nc(C(F)F)cc2cnc(Nc3ccc(N)cn3)nc12 [Compound 87]
31 |  |  | ≥ 100 | ≥ 100 | CC(O)c1cc2cnc(Nc3ccc(N4CCNCC4)cn3)nc2c(NCC(F)F)n1 (centres unmarked) [Compound 36]
32 | ≥ 100 | < 10 |  |  | CC(C)Nc1nc([C@@H](C)O)cc2cnc(Nc3ccc(N4CCN(CC(N)=O)CC4)nn3)nc12 [Compound 937]
33 | ≥ 100 | < 10 |  |  | C[C@@H](O)c1cc2cnc(Nc3ccc(CN4CCC(CO)CC4)cn3)nc2c(N[C@H]2CCCOC2)n1 [Compound 1156]
34 | ≥ 100 | < 10 |  |  | CC(C)Nc1nc(C(C)O)cc2cnc(Nc3ccc(OC4CNCCC4F)cn3)nc12 (centres unmarked) [Compound 864]
35 | ≥ 100 | < 10 |  |  | CCNc1nc([C@@H](C)O)cc2cnc(Nc3ccc4c(n3)CCNC4)nc12 [Compound 996]
36 |  |  | ≥ 100 | < 10 | CO[C@H](C)c1cc2cnc(Nc3ccc(CCO)cn3)nc2c(NC(C)C)n1 [Compound 223]
37 |  |  | ≥ 100 | < 10 | CC(C)Nc1nc([C@@H](C)O)cc2cnc(Nc3ccc(N4CCN(C(C)C)CC4)nn3)nc12 [Compound 585]
38 | ≥ 100 | < 10 |  |  | CC(C)Nc1nc([C@@H](C)O)cc2cnc(Nc3ccc(CN4CCN(CC#N)CC4)cn3)nc12 [Compound 1015]
39 | ≥ 100 | < 10 |  |  | C[C@@H](O)c1cc2cnc(Nc3ccc(O[C@H]4CC[C@@H](N(C)C)CC4)cn3)nc2c(N[C@H]2CCCOC2)n1 [Compound 787]
40 |  |  | ≥ 100 | < 10 | C[C@@H](O)c1nc(N[C@H]2CC[C@H](O)CC2)c2nc(Nc3ccc(N4CCNCC4)nn3)ncc2c1Cl [Compound 368]
41 |  |  | 10 to 100 | < 10 | CC(C)Nc1nc([C@@H](C)O)cc2cnc(Nc3ccc(N4C[C@H]5CCN[C@H]5C4=O)cn3)nc12 [Compound 558]
42 |  |  | ≥ 100 | 10 to 100 | CC(C)Nc1nc(C(F)F)cc2cnc(Nc3ccc(-c4cnn(C)c4)cn3)nc12 [Compound 188]

Row | IC50 (CDK2/cyclin A2; [1]) [nM] | IC50 (CDK4/cyclin D3; [2]) [nM] | IC50 (CDK2/cyclin A2; [3]) [nM] | IC50 (CDK4/cyclin D3; [4]) [nM] | SMILES
43 |  |  | ≥ 100 | < 10 | CO[C@H](C)c1cc2cnc(Nc3ccc(CN4CCNCC4)cn3)nc2c(NC2CCOCC2)n1 [Compound 291]
44 |  |  | ≥ 100 | 10 to 100 | CC(C)Nc1nc(C(F)F)cc2cnc(Nc3ccc(C(=O)NCCO)cn3)nc12 [Compound 109]
45 |  |  | ≥ 100 | 10 to 100 | COCC(C)(C)Nc1nc([C@@H](C)O)cc2cnc(Nc3ccc(CN4CCOCC4(C)C)cn3)nc12 [Compound 298]
46 |  |  | ≥ 100 | < 10 | FC(F)c1cc2cnc(Nc3ccc(CN4CCNCC4)cn3)nc2c(N[C@H]2CCCOC2)n1 [Compound 380]
47 | ≥ 100 | 10 to 100 |  |  | CC(C)Nc1nc(C2CCOC2)cc2cnc(Nc3ccc(N4CCN(CC(=O)O)CC4C(F)(F)F)cn3)nc12 (centres unmarked) [Compound 889]
48 | ≥ 100 | < 10 |  |  | C[C@@H](O)c1cc2cnc(Nc3ccc(CN4CCC[C@H](O)C4)cn3)nc2c(N[C@H]2CC[C@H](O)CC2)n1 [Compound 1190]
49 |  |  | ≥ 100 | < 10 | COC1CCC(Nc2nc(C(C)OC)cc3cnc(Nc4ccc(CN5CCNCC5)cn4)nc23)CC1 (centres unmarked) [Compound 395]
50 | ≥ 100 | < 10 |  |  | CC(C)Nc1nc([C@@H](C)O)cc2cnc(Nc3ccc4c(n3)CN(C(=O)CO)C4)nc12 [Compound 656]
51 |  |  | 10 to 100 | < 10 | CC(C)Nc1nc(C(F)F)cc2cnc(Nc3ccc(N4CCC(N)C4)cn3)nc12 (centres unmarked) [Compound 52]
52 |  |  | ≥ 100 | < 10 | CC(C)Nc1nc([C@@H](C)O)cc2cnc(Nc3ccc(N4CCN[C@@H](C)C4=O)cn3)nc12 [Compound 507]
53 | ≥ 100 | < 10 |  |  | CC(C)Nc1nc([C@@H](C)O)cc2cnc(Nc3ccc(N4CCC(NC(C)C)CC4)nn3)nc12 [Compound 722]
54 |  |  | ≥ 100 | 10 to 100 | COCC(C)(C)Nc1nc([C@@H](C)O)cc2cnc(Nc3ccc(CCO)cn3)nc12 [Compound 228]
55 | ≥ 100 | < 10 |  |  | Cc1nc(Nc2ncc3cc([C@@H](C)O)nc(NCC(C)C)c3n2)ccc1N1CCNCC1 [Compound 1093]
56 |  |  | ≥ 100 | < 10 | CC(C)Nc1nc(C(F)F)cc2cnc(Nc3ccc(OCCN4CCCC4=O)cn3)nc12 [Compound 103]
57 | ≥ 100 | < 10 |  |  | CC(O)c1cc2cnc(Nc3ccc(OC4CCNCC4F)cn3)nc2c(NC2CCC(C)(C)OC2)n1 (centres unmarked) [Compound 647]
58 |  |  | 10 to 100 | < 10 | CC(C)Nc1nc(C(F)F)cc2cnc(Nc3ccc(CN4CCC(CO)CC4)cn3)nc12 [Compound 147]
